Test results published in PubChem BioAssay (NCI).
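Each compound was tested at five concentrations against cells in 96-well plates for 48 hours. The concentration for full growth arrest is given as TGI.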

Columns and labels:
Test in all cases: NCI tumour cell line growth inhibition, 48 h
[1] = test system: HCT-116 colon
[2] = test system: MALME-3M melanoma
[3] = test system: HCC-2998 colon
[4] = test system: HT29 colon
[5] = test system: SK-MEL-28 melanoma
[6] = test system: M14 melanoma
[7] = test system: PC-3 prostate
[8] = test system: TK-10 renal
[9] = test system: SNB-75 CNS
[10] = test system: RXF 393 renal
[11] = test system: EKVX NSCLC
[12] = test system: SN12C renal
[13] = test system: ACHN renal
[14] = test system: NCI-H23 lung
[15] = test system: SK-MEL-2 melanoma
[16] = test system: SF-539 CNS
[17] = test system: NCI-H460 lung
[18] = test system: MDA-N
[19] = test system: SW-620 colon
[20] = test system: IGROV1 ovarian
[21] = test system: UACC-257 melanoma
[22] = test system: NCI-H226 lung
[23] = test system: A498 renal
[24] = test system: COLO 205 colon
[25] = test system: MDA-MB-435
[26] = test system: HS 578T breast
[27] = test system: NCI/ADR-RES ovarian
[28] = test system: OVCAR-5 ovarian
[29] = test system: SK-OV-3 ovarian
[30] = test system: SF-268 CNS
[31] = test system: OVCAR-4 ovarian
[32] = test system: KM12 colon
[33] = test system: 786-0 renal
[34] = test system: DU-145 prostate
[35] = test system: HCT-15 colon
[36] = test system: T-47D breast
[37] = test system: MCF7 breast
[38] = test system: A549 NSCLC
[39] = test system: MDA-MB-231 breast
[40] = test system: UACC-62 melanoma
[41] = test system: HL-60(TB) leukemia
[42] = test system: U251 CNS
[43] = test system: HOP-62 NSCLC
[44] = test system: SNB-19 CNS
[45] = test system: BT-549 breast
[46] = test system: OVCAR-3 ovarian
[47] = test system: CAKI-1 renal
[48] = test system: HOP-92 NSCLC
[49] = test system: LOX IMVI melanoma
[50] = test system: MOLT-4 leukemia
[51] = test system: K-562 leukemia
[52] = test system: SF-295 CNS
[53] = test system: UO-31 renal
[54] = test system: SR leukemia
[55] = test system: RPMI-8226 leukemia
[56] = test system: SK-MEL-5 melanoma
[57] = test system: OVCAR-8 ovarian
[58] = test system: NCI-H522 lung
[59] = test system: CCRF-CEM leukemia

CCCCCCCCCCCCCCCC1(OC)C[N+](C)(C)CCO1 (configuration not stated)
TGI [1]: 3.38 µM | TGI [2]: 4.7 µM | TGI [3]: 6.18 µM | TGI [4]: 2.56 µM | TGI [5]: 6.33 µM | TGI [6]: 3.13 µM | TGI [7]: 6.21 µM | TGI [8]: 5.33 µM | TGI [9]: 0.445 µM | TGI [10]: 2.39 µM | TGI [11]: 5.76 µM | TGI [12]: 3.94 µM | TGI [13]: 5.8 µM | TGI [14]: 2.81 µM | TGI [15]: 7.63 µM | TGI [16]: 3.49 µM | TGI [17]: 5.57 µM | TGI [18]: 4.99 µM | TGI [19]: 26.4 µM | TGI [20]: 3.16 µM | TGI [21]: 4.85 µM | TGI [22]: 3.6 µM | TGI [23]: 67.5 µM | TGI [24]: 2.58 µM | TGI [25]: 3.63 µM | TGI [26]: 7.22 µM | TGI [27]: 41.7 µM | TGI [28]: 6.08 µM | TGI [29]: 21.8 µM | TGI [30]: 5.04 µM | TGI [31]: 5.96 µM | TGI [32]: 1.96 µM | TGI [33]: 2.05 µM | TGI [34]: 5.9 µM | TGI [35]: 28.9 µM | TGI [36]: 33.6 µM | TGI [37]: 0.901 µM | TGI [38]: 3.45 µM | TGI [39]: 4.8 µM | TGI [40]: 7.64 µM

NN/C(=N\S(=O)(=O)c1ccc(S(=O)(=O)c2ccccc2)s1)Nc1ccc(Cl)cc1
TGI [1]: 32.5 µM | TGI [41]: 62.2 µM | TGI [4]: 65.4 µM | TGI [5]: > 100 µM | TGI [6]: 40.1 µM | TGI [7]: > 100 µM | TGI [42]: > 100 µM | TGI [8]: > 100 µM | TGI [10]: 47.6 µM | TGI [11]: 50.4 µM | TGI [12]: 77.8 µM | TGI [13]: > 100 µM | TGI [43]: > 100 µM | TGI [14]: 80 µM | TGI [15]: 53.8 µM | TGI [44]: > 100 µM | TGI [16]: > 100 µM | TGI [17]: 65.7 µM | TGI [45]: > 100 µM | TGI [18]: 41.8 µM | TGI [19]: > 100 µM | TGI [46]: 72.2 µM | TGI [47]: > 100 µM | TGI [20]: 88.7 µM | TGI [21]: 67.5 µM | TGI [48]: 73.3 µM | TGI [49]: 36.6 µM | TGI [22]: > 100 µM | TGI [23]: > 100 µM | TGI [24]: 46.2 µM | TGI [27]: > 100 µM | TGI [50]: 41.2 µM | TGI [28]: > 100 µM | TGI [29]: > 100 µM | TGI [51]: > 100 µM | TGI [52]: > 100 µM | TGI [53]: > 100 µM | TGI [54]: 44 µM | TGI [31]: > 100 µM | TGI [32]: 49.3 µM | TGI [33]: 54.2 µM | TGI [34]: 76.5 µM | TGI [55]: > 100 µM | TGI [35]: > 100 µM | TGI [36]: 59.3 µM | TGI [37]: > 100 µM | TGI [38]: > 100 µM | TGI [56]: 46.2 µM | TGI [39]: > 100 µM | TGI [57]: > 100 µM | TGI [40]: 33.5 µM

Cc1ccc(S(=O)(=O)Nn2c(O)c(C#N)c(-c3ccc([N+](=O)[O-])cc3)c(C#N)c2=O)cc1
TGI [1]: > 100 µM | TGI [2]: > 100 µM | TGI [3]: > 100 µM | TGI [41]: > 100 µM | TGI [4]: > 100 µM | TGI [5]: > 100 µM | TGI [6]: > 100 µM | TGI [7]: > 100 µM | TGI [42]: > 100 µM | TGI [8]: > 100 µM | TGI [9]: > 100 µM | TGI [10]: > 100 µM | TGI [11]: > 100 µM | TGI [12]: > 100 µM | TGI [13]: > 100 µM | TGI [43]: > 100 µM | TGI [15]: > 100 µM | TGI [44]: > 100 µM | TGI [16]: > 100 µM | TGI [17]: > 100 µM | TGI [45]: > 100 µM | TGI [18]: > 100 µM | TGI [19]: > 100 µM | TGI [47]: > 100 µM | TGI [58]: > 100 µM | TGI [20]: > 100 µM | TGI [21]: > 100 µM | TGI [48]: > 100 µM | TGI [49]: > 100 µM | TGI [22]: > 100 µM | TGI [23]: > 100 µM | TGI [24]: > 100 µM | TGI [25]: > 100 µM | TGI [27]: > 100 µM | TGI [50]: > 100 µM | TGI [28]: > 100 µM | TGI [29]: > 100 µM | TGI [51]: > 100 µM | TGI [52]: > 100 µM | TGI [30]: > 100 µM | TGI [31]: > 100 µM | TGI [32]: > 100 µM | TGI [33]: > 100 µM | TGI [35]: > 100 µM | TGI [37]: > 100 µM | TGI [38]: > 100 µM | TGI [59]: > 100 µM | TGI [56]: > 100 µM | TGI [39]: > 100 µM | TGI [57]: > 100 µM | TGI [40]: > 100 µM

N#Cc1nc(-c2cccc(-c3nc(C#N)c(N)o3)n2)oc1N
TGI [1]: > 100 µM | TGI [2]: > 100 µM | TGI [3]: > 100 µM | TGI [41]: > 100 µM | TGI [4]: > 100 µM | TGI [5]: > 100 µM | TGI [6]: > 100 µM | TGI [7]: > 100 µM | TGI [42]: > 100 µM | TGI [8]: > 100 µM | TGI [9]: > 100 µM | TGI [11]: > 100 µM | TGI [12]: > 100 µM | TGI [13]: > 100 µM | TGI [43]: > 100 µM | TGI [14]: > 100 µM | TGI [15]: > 100 µM | TGI [44]: > 100 µM | TGI [16]: > 100 µM | TGI [17]: > 100 µM | TGI [18]: > 100 µM | TGI [19]: > 100 µM | TGI [46]: > 100 µM | TGI [47]: > 100 µM | TGI [58]: > 100 µM | TGI [20]: > 100 µM | TGI [21]: > 100 µM | TGI [48]: > 100 µM | TGI [49]: > 100 µM | TGI [22]: > 100 µM | TGI [23]: > 100 µM | TGI [24]: > 100 µM | TGI [25]: > 100 µM | TGI [26]: > 100 µM | TGI [27]: > 100 µM | TGI [50]: > 100 µM | TGI [28]: > 100 µM | TGI [29]: > 100 µM | TGI [51]: > 100 µM | TGI [52]: > 100 µM | TGI [53]: > 100 µM | TGI [30]: > 100 µM | TGI [54]: > 100 µM | TGI [31]: > 100 µM | TGI [32]: > 100 µM | TGI [33]: > 100 µM | TGI [34]: > 100 µM | TGI [55]: > 100 µM | TGI [35]: > 100 µM | TGI [36]: > 100 µM | TGI [37]: > 100 µM | TGI [38]: > 100 µM | TGI [59]: 46.9 µM | TGI [56]: > 100 µM | TGI [39]: > 100 µM | TGI [57]: > 100 µM | TGI [40]: > 100 µM

O=c1[nH]c2ccc(CC(=S)N3CCCCC3)cc2s1
TGI [1]: > 100 µM | TGI [5]: > 100 µM | TGI [6]: > 100 µM | TGI [7]: > 100 µM | TGI [8]: > 100 µM | TGI [13]: > 100 µM | TGI [43]: > 100 µM | TGI [14]: > 100 µM | TGI [15]: > 100 µM | TGI [44]: > 100 µM | TGI [45]: > 100 µM | TGI [18]: > 100 µM | TGI [19]: > 100 µM | TGI [46]: > 100 µM | TGI [47]: > 100 µM | TGI [21]: > 100 µM | TGI [49]: > 100 µM | TGI [24]: > 100 µM | TGI [25]: > 100 µM | TGI [50]: > 100 µM | TGI [28]: > 100 µM | TGI [29]: > 100 µM | TGI [51]: > 100 µM | TGI [52]: > 100 µM | TGI [54]: > 100 µM | TGI [32]: > 100 µM | TGI [33]: > 100 µM | TGI [34]: > 100 µM | TGI [35]: > 100 µM | TGI [37]: > 100 µM | TGI [39]: > 100 µM | TGI [57]: > 100 µM | TGI [40]: > 100 µM
